Assay results from publication PMC6199744, “Development of Chemical Proteomics for the Folateome and Analysis of the Kinetoplastid Folateome” (ACS Infectious Diseases, 2018).
Like-named read-outs stand apart in the source and are kept apart here.

Columns and labels:
Type in all cases: binding
[1] = target: T1, HeLa cell extract proteins (Homo sapiens, UniProt O95197)
T1 construct: endogenous in cells; host or cells: HeLa cell extract
T1 sequence (O95197 1-1032): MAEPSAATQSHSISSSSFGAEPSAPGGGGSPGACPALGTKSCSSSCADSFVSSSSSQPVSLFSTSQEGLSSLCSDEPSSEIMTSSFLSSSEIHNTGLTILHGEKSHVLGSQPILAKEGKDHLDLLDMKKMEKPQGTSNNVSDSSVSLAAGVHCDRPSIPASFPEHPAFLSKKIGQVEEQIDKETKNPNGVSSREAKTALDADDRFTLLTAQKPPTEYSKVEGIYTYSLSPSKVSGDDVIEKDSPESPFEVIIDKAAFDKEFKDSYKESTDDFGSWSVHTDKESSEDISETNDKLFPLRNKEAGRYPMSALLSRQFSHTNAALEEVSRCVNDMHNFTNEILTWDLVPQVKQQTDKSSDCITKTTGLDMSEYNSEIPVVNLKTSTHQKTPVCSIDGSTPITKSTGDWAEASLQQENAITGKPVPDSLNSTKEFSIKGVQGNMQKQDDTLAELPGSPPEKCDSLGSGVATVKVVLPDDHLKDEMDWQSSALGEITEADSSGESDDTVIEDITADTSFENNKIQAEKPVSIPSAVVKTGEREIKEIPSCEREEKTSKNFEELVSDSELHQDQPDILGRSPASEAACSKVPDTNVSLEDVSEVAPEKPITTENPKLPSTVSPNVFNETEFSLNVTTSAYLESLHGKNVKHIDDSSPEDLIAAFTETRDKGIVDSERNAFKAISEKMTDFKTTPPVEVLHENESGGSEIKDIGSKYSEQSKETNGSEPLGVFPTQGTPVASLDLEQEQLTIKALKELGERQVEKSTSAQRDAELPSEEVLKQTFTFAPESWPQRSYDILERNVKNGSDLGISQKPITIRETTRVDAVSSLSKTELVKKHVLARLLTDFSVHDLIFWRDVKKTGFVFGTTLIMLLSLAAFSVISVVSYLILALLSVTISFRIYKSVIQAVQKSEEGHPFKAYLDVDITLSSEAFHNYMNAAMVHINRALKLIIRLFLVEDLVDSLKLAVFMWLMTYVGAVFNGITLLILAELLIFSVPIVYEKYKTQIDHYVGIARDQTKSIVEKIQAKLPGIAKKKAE

[2] = target: T2, HeLa cell extract proteins (Homo sapiens, UniProt P31930)
T2 construct: endogenous in cells; host or cells: HeLa cell extract
T2 sequence (P31930 35-480): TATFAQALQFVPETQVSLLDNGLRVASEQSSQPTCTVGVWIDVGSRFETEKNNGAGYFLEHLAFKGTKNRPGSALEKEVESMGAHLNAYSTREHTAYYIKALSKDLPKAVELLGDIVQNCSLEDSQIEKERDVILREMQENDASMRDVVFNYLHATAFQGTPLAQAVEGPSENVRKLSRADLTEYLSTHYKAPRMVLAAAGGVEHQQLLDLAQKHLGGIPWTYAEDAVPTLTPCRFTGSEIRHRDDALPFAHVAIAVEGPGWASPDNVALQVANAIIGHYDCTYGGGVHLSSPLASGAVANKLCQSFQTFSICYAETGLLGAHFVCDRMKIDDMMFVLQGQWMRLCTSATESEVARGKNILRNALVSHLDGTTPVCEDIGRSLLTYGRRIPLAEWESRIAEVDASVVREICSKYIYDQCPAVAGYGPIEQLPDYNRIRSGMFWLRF

[3] = target: T3, HeLa cell extract proteins (Homo sapiens, UniProt Q96AG4)
T3 construct: endogenous in cells; host or cells: HeLa cell extract
T3 sequence (Q96AG4 1-307): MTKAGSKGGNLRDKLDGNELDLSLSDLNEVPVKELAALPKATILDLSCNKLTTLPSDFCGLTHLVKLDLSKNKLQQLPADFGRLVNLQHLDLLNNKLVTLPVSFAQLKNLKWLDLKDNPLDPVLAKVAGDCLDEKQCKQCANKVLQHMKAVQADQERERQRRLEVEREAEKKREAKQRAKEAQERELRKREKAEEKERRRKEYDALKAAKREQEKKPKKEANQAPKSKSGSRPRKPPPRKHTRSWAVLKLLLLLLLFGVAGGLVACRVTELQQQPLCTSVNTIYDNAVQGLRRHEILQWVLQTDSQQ

[4] = target: T4, HeLa cell extract proteins (Homo sapiens, UniProt Q9Y5L0)
T4 construct: endogenous in cells; host or cells: HeLa cell extract
T4 sequence (Q9Y5L0 1-923): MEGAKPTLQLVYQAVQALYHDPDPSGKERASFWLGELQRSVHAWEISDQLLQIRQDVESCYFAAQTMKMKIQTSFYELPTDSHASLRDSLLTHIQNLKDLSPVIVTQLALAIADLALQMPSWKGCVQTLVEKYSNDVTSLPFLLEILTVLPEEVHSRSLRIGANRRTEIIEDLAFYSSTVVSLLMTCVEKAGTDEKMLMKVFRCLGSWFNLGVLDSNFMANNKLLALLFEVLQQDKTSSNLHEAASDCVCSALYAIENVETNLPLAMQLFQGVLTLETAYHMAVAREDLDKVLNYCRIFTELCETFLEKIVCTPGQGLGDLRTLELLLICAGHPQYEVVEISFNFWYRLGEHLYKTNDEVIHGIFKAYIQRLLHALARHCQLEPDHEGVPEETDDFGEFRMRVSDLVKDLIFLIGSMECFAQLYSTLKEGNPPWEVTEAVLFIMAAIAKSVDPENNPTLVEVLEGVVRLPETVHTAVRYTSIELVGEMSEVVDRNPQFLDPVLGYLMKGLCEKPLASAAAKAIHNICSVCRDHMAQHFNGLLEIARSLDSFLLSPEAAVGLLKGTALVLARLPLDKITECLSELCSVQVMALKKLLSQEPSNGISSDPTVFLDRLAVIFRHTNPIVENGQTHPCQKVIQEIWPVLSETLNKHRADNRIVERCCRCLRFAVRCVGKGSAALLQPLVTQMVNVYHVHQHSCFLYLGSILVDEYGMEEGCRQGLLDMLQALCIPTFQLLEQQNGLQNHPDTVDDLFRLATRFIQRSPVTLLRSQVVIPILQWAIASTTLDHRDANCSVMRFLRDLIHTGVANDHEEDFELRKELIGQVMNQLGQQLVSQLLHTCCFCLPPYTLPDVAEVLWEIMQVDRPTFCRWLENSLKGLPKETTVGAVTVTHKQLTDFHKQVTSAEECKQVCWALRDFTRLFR

| SMILES | fold changes relative to vehicle control ([1]; protein RTN3, HeLa) | fold changes relative to vehicle control ([2]; HeLa, captured protein UQCRC1) | fold changes relative to vehicle control ([3]; HeLa, protein LRRC59) | fold changes relative to vehicle control ([4]; HeLa, captured protein TNPO3) | fold changes relative to vehicle control [1] | fold changes relative to vehicle control [2] | fold changes relative to vehicle control [3] | fold changes relative to vehicle control [4] | fold changes relative to vehicle control ([2]; HeLa, protein UQCRC1) | fold changes relative to vehicle control ([3]; protein LRRC59, HeLa) | fold changes relative to vehicle control ([4]; HeLa, protein TNPO3) |
| --- | --- | --- | --- | --- | --- | --- | --- | --- | --- | --- | --- |
| Nc1nc2c(c(=O)[nH]1)N(C=O)C(CNc1ccc(C(=O)N[C@@H](CCC(=O)O)C(=O)O)cc1)CN2 (stereo partly shown) [LEU, leucovorin] | 0.97 | 0.99 | 0.83 | 0.95 | – | – | – | – | – | – | – |
| Nc1nc2[nH]cc(CCc3ccc(C(=O)N[C@@H](CCC(=O)O)C(=O)O)cc3)c2c(=O)[nH]1 [PTX, pemetrexed] | – | – | – | – | 0.85 | 0.88 | 0.83 | 0.96 | – | – | – |
| CCCCCCOc1ccc(Cc2cnc(N)nc2N)cc1 [compound 1] | 1 | – | – | – | – | – | – | – | 1.09 | 1.14 | 0.93 |
| CCCCCCOc1cccc(Cc2cnc(N)nc2N)c1 [compound 2] | 1.14 | – | – | – | – | – | – | – | 0.92 | 1.54 | 0.9 |
| Nc1nc2cccc(-c3ccccc3)c2n1Cc1ccc(Cl)c(Cl)c1 [compound 3] | 0.9 | – | – | – | – | – | – | – | 0.96 | 0.98 | 1.01 |
| NCCOCCOCC(=O)Nc1nc2ncc(CNc3ccc(C(=O)NC(CCC(=O)O)C(=O)O)cc3)nc2c(=O)[nH]1 (stereo not shown) [compound 6] | 0.94 | 0.95 | 1.13 | 1.04 | – | – | – | – | – | – | – |
| NCCCNc1ccc(C(=O)NC(CCC(=O)O)C(=O)O)cc1 (stereo not shown) [compound 7] | 0.84 | 0.99 | 0.87 | 0.96 | – | – | – | – | – | – | – |
